# Source: US20250230165A1, “HETEROCYCLIC COMPOUNDS FOR USE IN THE TREATMENT OF CANCER” (ARTIOS PHARMA LIMITED, priority 2021, published 2025)
# Molecular target: T1, Human Polθ polymerase domain (aa1820-2590) (Homo sapiens, UniProt O75417)
# T1 construct: Human Polθ polymerase domain (aa1820-2590) was expressed in E. coli; made in house; host or cells: E. coli
# T1 sequence (O75417 1820-2590): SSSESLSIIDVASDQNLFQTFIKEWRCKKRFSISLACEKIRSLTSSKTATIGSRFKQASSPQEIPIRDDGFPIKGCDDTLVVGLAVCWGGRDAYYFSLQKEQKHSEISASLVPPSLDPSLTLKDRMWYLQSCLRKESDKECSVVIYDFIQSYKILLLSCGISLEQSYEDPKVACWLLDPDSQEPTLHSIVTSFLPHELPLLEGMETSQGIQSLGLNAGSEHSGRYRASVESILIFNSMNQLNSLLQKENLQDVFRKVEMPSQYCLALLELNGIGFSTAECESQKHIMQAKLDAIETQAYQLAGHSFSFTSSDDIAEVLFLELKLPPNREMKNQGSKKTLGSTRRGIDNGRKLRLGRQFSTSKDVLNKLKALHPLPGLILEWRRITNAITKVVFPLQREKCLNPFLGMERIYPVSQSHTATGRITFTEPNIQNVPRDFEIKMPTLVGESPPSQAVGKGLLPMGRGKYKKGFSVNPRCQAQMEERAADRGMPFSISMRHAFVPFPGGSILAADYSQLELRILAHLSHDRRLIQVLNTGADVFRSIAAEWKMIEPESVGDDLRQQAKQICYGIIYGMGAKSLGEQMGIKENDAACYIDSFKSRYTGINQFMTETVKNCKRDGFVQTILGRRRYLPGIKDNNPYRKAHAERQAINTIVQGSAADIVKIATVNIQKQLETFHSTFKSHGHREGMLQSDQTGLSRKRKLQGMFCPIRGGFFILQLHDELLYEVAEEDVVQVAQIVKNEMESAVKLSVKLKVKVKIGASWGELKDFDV
# Test: Polθ Polymerase Domain Kinact/KI Assay (PicoGreen)
# Format: biochemical
# Details: 0.8 nM Polθ, 100 nM DNA substrate, kobs vs [I] fit for 2-step covalent inhibitor
# Outline: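 Time-dependent inhibition was followed by quenching reactions with EDTA at points up to 60 min, then staining product DNA with PicoGreen fluorescence. Reactions held 0.8 nM E. coli-expressed Polθ, 100 nM primed DNA substrate and […] at pH 7.5, 1% DMSO. kobs versus inhibitor concentration gave Kinact and KI.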
row,Compound,Kinact/Kl [M⁻¹ s⁻¹]
1,"C=CC(=O)N1Cc2nc(CN3C[C@H]4CC(=O)N(c5cc(C(F)(F)F)cc(C)n5)[C@@H]4C(=O)N(C)c4cccc(C)c43)ccc2[C@H]1CC#N (racemic) [Example 319a, 2-((S/R)-6-acryloyl-2-(((3aR,11aS)-6,10-dimethyl-1-(6-meth-yl-4-(trifluorometh-yl)pyridin-2-yl)-2,11-dioxo-1,2,3,3a,4,10,11,11a-octahydro-5H-benzo [b]pyrrolo[2,3-][1,4]diazocin-5-yl)meth-yl)-6,7-dihydro-5H-pyrrolo[3,4-b]pyr-idin-5-yl)acetonitrile]",2.17e+06
2,"C=CC(=O)N1Cc2nc(CN3C[C@H]4CC(=O)N(c5cc(C(F)(F)F)cc(C)n5)[C@@H]4C(=O)N(C)c4cccc(C)c43)ccc2[C@H]1CC#N (racemic) [Example 319b, 2-((R/S)-6-acryloyl-2-(((3aR,11aS)-6,10-dimethyl-1-(6-meth-yl-4-(trifluorometh-yl)pyridin-2-yl)-2,11-dioxo-1,2,3,3a, 4,10,11,11a-octa-hydro-5H-benzo[b]pyrrolo[2,3-f][1,4]diazocin-5-yl)meth-yl)-6,7-dihydro-5H-pyrrolo[3,4-b]pyr-idin-5-yl)acetonitrile]",1.66e+06
3,"C=CC(=O)N1Cc2ncc(CN3C[C@H]4CC(=O)N(c5cc(C(F)(F)F)cc(C)n5)[C@@H]4C(=O)N(C)c4cccc(C)c43)cc2[C@H]1CC#N (racemic) [Example 320a, 2-((R/S)-6-acryloyl-3-(((3aR,11aS)-6,10-dimethyl-1-(6-meth-yl-4-(trifluorometh-yl)pyridin-2-yl)-2,11-dioxo-1,2,3,3a, 4,10,11,11a-octa-hydro-5H-benzo[b]pyrrolo[2,3-f][1,4]diazocin-5-yl)meth-yl)-6,7-dihydro-5H-pyrrolo[3,4-b]pyr-idin-5-yl)acetonitrile]",1.37e+06
4,"C=CC(=O)N1Cc2ncc(CN3C[C@H]4CC(=O)N(c5cc(C(F)(F)F)cc(C)n5)[C@@H]4C(=O)N(C)c4cccc(C)c43)cc2[C@@H]1CC#N (racemic) [Example 320b, 2-((S/R)-6-acryloyl-3-(((3aR,11aS)-6,10-dimethyl-1-(6-meth-yl-4-(trifluorometh-yl)pyridin-2-yl)-2,11-dioxo-1,2,3,3a, 4, 10,11,11a-octa-hydro-5H-benzo[b]pyrrolo[2,3-f][1,4]diazocin-5-yl)meth-yl)-6,7-dihydro-5H-pyrrolo[3,4-b]pyr-idin-5-yl)acetonitrile]",2.48e+06
5,"C=CC(=O)N1Cc2cc(CN3C[C@H]4CC(=O)N(c5cc(C(F)(F)F)cc(C)n5)[C@@H]4C(=O)N(C)c4cccc(C)c43)cnc2[C@@H]1CC#N (racemic) [Example 321a, 2-((S/R)-6-acryloyl-3-(((3aR,11aS)-6,10-dimethyl-1-(6-meth-yl-4-(trifluorometh-yl)pyridin-2-yl)-2,11-dioxo-1,2,3,3a, 4,10,11,11a-octa-hydro-5H-benzo[b]pyrrolo[2,3-f][1,4]diazocin-5-yl)meth-yl)-6,7-dihydro-5H-pyrrolo[3,4-b]pyr-idin-7-yl)acetonitrile]",1.57e+06
6,"C=CC(=O)N1Cc2cc(CN3C[C@H]4CC(=O)N(c5cc(C(F)(F)F)cc(C)n5)[C@@H]4C(=O)N(C)c4cccc(C)c43)cnc2[C@H]1CC#N (racemic) [Example 321b, 2-((R/S)-6-acryloyl-3-(((3aR,11aS)-6,10-dimethyl-1-(6-meth-yl-4-(trifluorometh-yl)pyridin-2-yl)-2,11-dioxo-1,2,3,3a, 4,10,11,11a-octa-hydro-5H-benzo[b]pyrrolo[2,3-f][1,4]diazocin-5-yl)meth-yl)-6,7-dihydro-5H-pyrrolo[3,4-b]pyr-idin-7-yl)acetonitrile]",690000
7,"C=CC(=O)N1Cc2nc(CN3C[C@H]4CC(=O)N(c5cc(C(F)(F)F)cc(C)n5)[C@@H]4C(=O)N(C)c4cccc(C)c43)cn2C[C@H]1C(F)(F)F (racemic) [Example 322a, (3aR,11aS)-5-(((S/R)-7-acryloyl-6-(trifluoromethyl)-5,6,7,8-tetrahydro-imidazo[1,2-a]pyr-azin-2-yl)methyl)-6,10-dimethyl-1-(6-methyl-4-(trifluoro-methyl)pyridin-2-yl)-1,3a,4,5,10,11a-hexahydro-2H-benzo[b]pyrrolo [2,3-f][1,4]diazo-cine-2,11(3H)-dione]",1.56e+06
8,"C=CC(=O)N1Cc2nc(CN3C[C@H]4CC(=O)N(c5cc(C(F)(F)F)cc(C)n5)[C@@H]4C(=O)N(C)c4cccc(C)c43)cn2C[C@@H]1C(F)(F)F (racemic) [Example 322b, (3aR,11aS)-5-(((R/S)-7-acryloyl-6-(trifluoromethyl)-5,6,7,8-tetrahydro-imidazo[1,2-a]pyr-azin-2-yl)methyl)-6,10-dimethyl-1-(6-methyl-4-(trifluoro-methyl)pyridin-2-yl)-1,3a,4,5,10,11a-hexahydro-2H-benzo[b]pyrrolo[2,3-f][1,4]diazocine-2,11(3H)-dione]",1.13e+06
9,"C=CC(=O)N1CCOC[C@H]1c1ccc(CN2C[C@H]3CC(=O)N(c4cc(C(F)(F)F)cc(C)n4)[C@@H]3C(=O)N(C)c3cccc(C)c32)cc1 (racemic) [Example 323a, (3aR,11aS)-5-(4-((R/S)-4-acryloyl-morpholin-3-yl)-benzyl)-6,10-di-methyl-1-(6-meth-yl-4-(trifluorometh-yl)pyridin-2-yl)-1,3a,4,5,10,11a-hexahydro-2H-benzo[b]pyrrolo [2,3-f][1,4]diazo-cine-2,11(3H)-dione]",640000
10,"C=CC(=O)N1CCOC[C@@H]1c1ccc(CN2C[C@H]3CC(=O)N(c4cc(C(F)(F)F)cc(C)n4)[C@@H]3C(=O)N(C)c3cccc(C)c32)cc1 (racemic) [Example 323b, (3aR,11aS)-5-(4-((S/R)-4-acryloyl-morpholin-3-yl)-benzyl)-6,10-dimeth-yl-1-(6-methyl-4-(trifluoromethyl)-pyridin-2-yl)-1,3a,4,5,10,11a-hexahydro-2H-benzo[b]pyrrolo [2,3-f][1,4]diazocine-2,11(3H)-dione]",330000
11,"C=CC(=O)N1CCOC[C@H]1c1ccc(CN2C[C@H]3CC(=O)N(c4cc(C(F)(F)F)cc(C)n4)[C@@H]3C(=O)N(C)c3cccc(C)c32)cn1 (racemic) [Example 324a, (3aR,11aS)-5-((6-((R/S)-4-acryloyl-morpholin-3-yl)pyr-idin-3-yl)methyl)-6,10-dimethyl-1-(6-methyl-4-(trifluoro-methyl)pyridin-2-yl)-1,3a,4,5,10, 11a-hexahydro-2H-benzo[b]pyrrolo [2,3-f][1,4]diazo-cine-2,11(3H)-dione]",150000
12,"C=CC(=O)N1CCOC[C@@H]1c1ccc(CN2C[C@H]3CC(=O)N(c4cc(C(F)(F)F)cc(C)n4)[C@@H]3C(=O)N(C)c3cccc(C)c32)cn1 (racemic) [Example 324b, (3aR,11aS)-5-((6-((S/R)-4-acryloyl-morpholin-3-yl)pyr-idin-3-yl)methyl)-6,10-dimethyl-1-(6-methyl-4-(trifluoro-methyl)pyridin-2-yl)-1,3a,4,5,10,11a-hexahydro-2H-benzo[b]pyrrolo [2,3-f][1,4]diazo-cine-2,11(3H)-dione]",470000
